Patent US20180344715A1, “WNT/BETA-CATENIN SIGNAL TRANSDUCTION INHIBITORS AND THEIR USE IN TREATMENT OR PREVENTION OF DISEASES AND CONDITIONS LINKED WITH SAID TRANSDUCTION” (BERGEN TEKNOLOGIOVERFORING AS, priority 2015, published 2018)

Test system: Wnt/β-catenin signaling
Assay: TOPFlash reporter assay in 293FT cells
Format: cell-based, human
Details: 1 μM 6BIO together with drug at indicated concentrations, 24 hours
Method: TOPFlash assay was performed in 96-well plate. For each well, 293T cells were transfected with 0.22 μg TOPFlash (or FOPFlash with mutant TCF binding sites) and 0.02 μg pRL-SV40P using lipofectamine 3000. For co-transfection with other plasmids, 0.1 μg additional DNA was used. […] The luciferase activity was measured 24 hours later by using Dual-Glo® Luciferase Assay System (Promega, E2940) according to the recommended protocol. The TOPFlash or FOPFlash activity was normalized to Renilla luciferase signals.
TOPFlash assay was performed as described above. Briefly, for each well of a 96-well plate 293FT cells were transfected with 0.22 μg TOPFlash (or FOPFlash with mutant TCF binding sites) and 0.02 μg pRL-SV40P using lipofectamine 3000. For co-transfection with other plasmids, 0.1 μg additional DNA was used. Four hours after transfection, 293FT cells were treated with DMSO, 1 μM 6B10 and 1 μM 6B10 together with pazopanib, orlistat and topotecan at varying concentrations for 24 hours. The luciferase activity was then measured using Dual-Glo® Luciferase Assay System (Promega, E2940) according to the recommended protocol. The TOPFlash or FOPFlash activity was normalized to Renilla luciferase signals.

| SMILES | TOPFlash activity normalized to Renilla luciferase activity |
| --- | --- |
| CC[C@@]1(O)C(=O)OCc2c1cc1n(c2=O)Cc2cc3c(CN(C)C)c(O)ccc3nc2-1.Cl [topotecan, (S)-10-[(dimethylamino)methyl]-4-ethyl-4,9-dihydroxy-1H-pyrano[3′,4′:6,7]indolizino[1,2-b]quinoline-3,14(4H,12H)-dione monohydrochloride] | Wnt signaling inhibition |
| CCCCCCCCCCC[C@@H](C[C@@H]1OC(=O)[C@H]1CCCCCC)OC(=O)[C@H](CC(C)C)NC=O [orlistat, (S)-((S)-1-((2S,3S)-3-Hexyl-4-oxooxetan-2-yl)tridecan-2-yl) 2-formamido-4-methylpentanoate] | Wnt signaling inhibition |
